According to patent US8183236B2, “Compounds with HIV-1 integrase inhibitory activity and use thereof as anti-HIV/AIDS therapeutics” (University of Southern California, priority 2007, dated 2012):

Assays:
[1] = molecular target: T1, HIV-1 integrase (wild-type IN) (Human immunodeficiency virus type 1 group M subtype B, UniProt P12497); assay: HIV-1 integrase 3′-processing assay (32P-labeled 21-mer, gel); format: biochemical
Outline: (§1)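 Wild-type IN at 200 nM preincubated with inhibitor 30 min at 30 °C in MnCl2 (7.5 mM), pH 7.2 MOPS buffer with 10% DMSO, then 20 nM 5′-32P-labeled 21-mer duplex added for 1 h. 19-mer and strand-transfer products resolved on denaturing 20% gels by phosphorimaging; IC50 from log concentration versus % inhibition.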

[2] = molecular target: T1, HIV-1 integrase (wild-type IN); assay: HIV-1 integrase strand transfer assay (32P-labeled 21-mer, gel); format: biochemical
Outline: as §1

[3] = wild-type IN 200 nM, 7.5 mM MnCl2, read-out: Inhibition of IN Catalytic Activities IC50 (μM) 3′-processing
[4] = wild-type IN 200 nM, 7.5 mM MnCl2, read-out: Inhibition of IN Catalytic Activities IC50 (μM) Strand Transfer
[5] = unit inferred, read-out: HIV-1 IN Inhibitory Activities 3′-processing
[6] = unit inferred, read-out: HIV-1 IN Inhibitory Activities Strand transfer

| SMILES | IC50 [1, 3] [µM] | IC50 [2, 4] [µM] | IC50 [1, 5] [µM] | IC50 [2, 6] [µM] |
| --- | --- | --- | --- | --- |
| CCCCn1c(=O)c(C(=O)Nc2ccccc2S(N)(=O)=O)c(O)c2ccccc21 [XR14] | 15 | 17 |  |  |
| Cc1cc2nc(-c3cc(NC(=O)c4ccc(F)cc4)ccc3O)oc2cc1C [XR16] |  |  | < 100 | < 100 |
| COc1ccc(C(=O)Nc2ccc(O)c(-c3nc4ccccc4o3)c2)cc1[N+](=O)[O-] [XR17] |  |  | 6 | 7 |
| COc1cc(C(=O)Nc2ccc(O)c(-c3nc4ccccc4o3)c2)cc(OC)c1OC [XR18] |  |  | < 100 | < 100 |
| O=C(Nc1ccc(O)c(-c2nc3ccccc3o2)c1)c1ccccc1F [XR19] |  |  | < 100 | < 100 |
| O=C(Nc1ccc(O)c(-c2nc3ccccc3o2)c1)c1cccc2ccccc12 [XR21] |  |  | 14 | 6 |
| COc1ccccc1C(=O)Nc1ccc(O)c(-c2nc3cc(C)ccc3o2)c1 [XR22] |  |  | < 100 | < 100 |
| O=C(NNC(=O)c1c(O)c2ccccc2[nH]c1=O)c1ccccc1Cl [XR44] | 28 | 26 |  |  |
